In US12637468B2, “Substituted [1,2,4]triazolo[4,3-b]pyridazines as GABAA receptor modulators” (SHANGHAI SIMR BIOTECHNOLOGY CO., LTD., priority 2019, dated 2026):

Key:
α5-GABAA receptor = molecular target: T1, α5-GABAA receptor (Homo sapiens, UniProt P18507+P31644); experiment: Cell-level screening: whole cell patch clamp, inverse agonist efficacy on α5-GABAA receptor expressed in HEK293; assay type: cell-based; conditions: drug 100 nM, GABA 0.05 μM, HEK293 expressing α5, β3 and γ2 subunits, clamped at −60 mV; read-out: Compound inverse agonist efficacy %
T1 construct: expressed in transfected cells; host or cells: HEK293, monoclonal stably transfected line
Procedure, shortened: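 Whole-cell patch clamp at −60 mV on HEK293 stably expressing α5β3γ2, pH 7.4 extracellular/CsCl internal solutions. Current evoked by 0.05 μM GABA, then compound in GABA solution; screening at 100 nM, dose-response 0.3–300 nM. Inverse agonist efficacy as % change of GABA current.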

[1] = Pharmacokinetic experiment on rats: brain entry ratio (brain tissue/plasma concentration ratio); assay type: in vivo; conditions: rat, male SD rats, po 10 mg/kg, Table 7
Procedure: The drug concentration ratio of plasma and brain tissue in the pharmacokinetic experiment on rats was used to evaluate the entry of compounds into brain. All rats fasted overnight before administration; the test compounds were dissolved and administered orally (po) to male SD rats, with 3 rats in each group. After administration of the test compounds, blood was collected by jugular vein puncture at 0.5 hours with about 0.25 mL per sample. The whole brain was taken at the same time. The plasma and brain tissue drug concentration were determined by LC-MS/MS method, and the pharmacokinetic parameters were calculated by Phoenix WinNonlin7.0. The dosage was 10 mg/kg, and the vehicle was 5% CMC-Na aqueous solution.

T1 sequence (P31644 32-462): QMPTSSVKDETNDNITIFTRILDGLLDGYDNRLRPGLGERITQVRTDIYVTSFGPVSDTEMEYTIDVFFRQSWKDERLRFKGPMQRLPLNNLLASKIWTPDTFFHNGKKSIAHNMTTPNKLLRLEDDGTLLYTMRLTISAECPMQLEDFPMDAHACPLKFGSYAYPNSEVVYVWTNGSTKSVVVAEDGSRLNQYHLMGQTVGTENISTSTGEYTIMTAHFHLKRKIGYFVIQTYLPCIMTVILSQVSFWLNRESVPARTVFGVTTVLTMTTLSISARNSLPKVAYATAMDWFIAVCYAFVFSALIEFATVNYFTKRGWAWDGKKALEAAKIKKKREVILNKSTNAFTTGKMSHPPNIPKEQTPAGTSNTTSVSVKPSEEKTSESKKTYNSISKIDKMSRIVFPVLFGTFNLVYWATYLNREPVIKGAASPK
T1 sequence (P28472 26-473 partner): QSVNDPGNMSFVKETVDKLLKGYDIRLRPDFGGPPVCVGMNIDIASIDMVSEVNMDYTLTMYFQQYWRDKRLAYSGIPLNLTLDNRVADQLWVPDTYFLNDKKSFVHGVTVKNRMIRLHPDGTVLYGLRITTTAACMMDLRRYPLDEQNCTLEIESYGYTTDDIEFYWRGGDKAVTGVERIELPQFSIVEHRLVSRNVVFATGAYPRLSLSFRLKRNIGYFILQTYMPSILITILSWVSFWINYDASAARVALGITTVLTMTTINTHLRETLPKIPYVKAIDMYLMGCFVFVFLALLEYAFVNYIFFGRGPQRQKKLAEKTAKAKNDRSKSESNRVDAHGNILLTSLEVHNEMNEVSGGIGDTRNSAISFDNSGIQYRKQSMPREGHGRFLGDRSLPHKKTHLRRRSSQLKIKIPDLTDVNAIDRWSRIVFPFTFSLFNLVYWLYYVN
T1 sequence (P18507 40-467 isoform P18507-1 limits assumed): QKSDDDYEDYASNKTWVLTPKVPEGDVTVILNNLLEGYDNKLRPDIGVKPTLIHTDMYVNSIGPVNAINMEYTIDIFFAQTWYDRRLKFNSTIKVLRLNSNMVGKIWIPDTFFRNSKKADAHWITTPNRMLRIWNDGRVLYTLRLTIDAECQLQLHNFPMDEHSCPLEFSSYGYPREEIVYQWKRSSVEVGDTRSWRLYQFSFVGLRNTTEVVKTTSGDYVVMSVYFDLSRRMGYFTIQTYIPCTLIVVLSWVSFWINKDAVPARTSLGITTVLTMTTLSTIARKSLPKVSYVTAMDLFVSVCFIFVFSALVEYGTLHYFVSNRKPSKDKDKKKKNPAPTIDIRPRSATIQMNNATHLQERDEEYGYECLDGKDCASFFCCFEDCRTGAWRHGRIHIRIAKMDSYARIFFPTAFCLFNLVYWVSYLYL

Compound	inhibition at 0.1 µM (α5-GABAA receptor) [%]	Kp at 0.5 h [1]
COCc1ccc(COc2nn3c(-c4cc(C)on4)nnc3cc2OC)nn1 [Embodiment 151]	55.8	0.02
COCCCOc1ccc(COc2nn3c(-c4noc(C)n4)nnc3cc2OC)nn1 [Embodiment 129]	45.8	0.047
COc1cc2nnc(-c3cc(C)on3)n2nc1OCc1ccc2c(n1)CCN(Cc1cc(C)on1)C2 [Embodiment 187]	50.4	0.0293
COc1cc2nnc(-c3cc(C)on3)n2nc1OCc1ccc2c(n1)CCN(C(CO)CO)C2 [Embodiment 185]	45.6	0
COCCOCc1ccc(COc2nn3c(-c4cc(C)on4)nnc3cc2OC)nn1 [Embodiment 166]	49.9	0.01
COc1cc2nnc(-c3cc(C)on3)n2nc1OCc1ccc2c(n1)CCN(C1CCOCC1)C2 [Embodiment 186]	56	0.0442
COCc1cn2nc(COc3nn4c(-c5cc(C)on5)nnc4cc3OC)ccc2n1 [Embodiment 213]	59.5	0.0179

More lines, now with the values ahead:

inhibition at 0.1 µM (α5-GABAA receptor) [%]	Kp at 0.5 h [1]	Compound
39.3	0.0243	COc1cc2nnc(-c3cc(C)on3)n2nc1OCc1ccc(OC2CCOCC2)nn1 [Embodiment 152]
49.3	0.0441	COc1cc2nnc(-c3cc(C)on3)n2nc1OCc1ccc2c(n1)CN(C)C2 [Embodiment 160, 3-(7-Methoxy-6-((6-methyl-6,7-dihydro-5H-pyrrolo[3,4-b]pyridin-2-yl)methoxy)-[1,2,4]triazolo[4,3-b]pyridazin-3-yl)-5-methylisoxazole]
45.2	0.0257	COc1cc2nnc(-c3cc(C)on3)n2nc1OCc1ccc(OC2CCOC2)nn1 (stereo not shown) [Embodiment 154]
39.6	0.0045	COc1cc2nnc(-c3cc(C)on3)n2nc1OCc1ccc2c(n1)CCN(C1COC1)C2 [Embodiment 84, 3-(7-Methoxy-6-((6-(oxetan-3-yl)-5,6,7,8-tetrahydro-1,6-naphthyridin-2-yl)methoxy)-[1,2,4]triazolo[4,3-b]pyridazin-3-yl)-5-methylisoxazole]
41.2	0.032	COc1cc2nnc(-c3cc(C)on3)n2nc1OCc1ccc(C2(F)CN(C3COC3)C2)cn1 [Embodiment 128]
49.4	0.02	COc1cc2nnc(-c3cc(C)on3)n2nc1OCc1ccc(OC2COC2)nn1 [Embodiment 153]
56.1	0.0133	COc1cc2nnc(-c3cc(C)on3)n2nc1OCc1ccc2c(n1)CN(C1CCOCC1)C2 [Embodiment 253]
